Marks after values point to notes of the source that are not given here.
What was measured:
42-MG-BA cells = assay: Cell proliferation measurement (CellTiter-Glo, 72 h); format: cell-based; conditions: Homo sapiens, anti-proliferation, Brain (Glioblastoma)
Experimental: (§1) The antiproliferative activity of the compounds of the general formula (I) was examined in vitro in human cancer cells. […] After 24 h, cells on one plate (0 h plate) were treated with 30 μl/cavity of CTG solution (Promega Cell Titer Glo (catalogue #G755B and G756B)) and incubated at room temperature for 10 min, and luminescence was measured by means of a VICTOR V (Perkin Elmer), in order to determine cell viability on commencement of treatment. The cells on the test plate were treated with the compounds of the general formula (I) as and incubated at 37° C. for 72 h. The compounds were added to the cells by means of an HP D300 digital dispenser in a 10-step 2,5-fold dilution series generally starting at a maximum final drug concentration of 100 nM, or 30 μM in the case of COV318. As control, the cells were treated with vehicle (DMSO at 0.3% final concentration). After 72 h, the cells were treated with 30 μl/cavity of CTG solution (Promega Cell Titer Glo (catalogue #G755B and G756B)) and incubated at room temperature for 10 min, and luminescence was measured by means of a VICTOR V (Perkin Elmer), in order to determine cell viability at the end of treatment. The percentage effect on cell growth and the IC50 derived therefrom were determined for each test substance using the values from the 0 h plate (=maximum inhibition) and the DMSO control (=minimum inhibition). The IC50 values were calculated using a 4-parameter fit.

92.1 cells = assay: as above; format: cell-based; conditions: Homo sapiens, anti-proliferation, 92.1, Uveal melanoma
Experimental: as §1

COV318 cells = assay: as above; format: cell-based; conditions: Homo sapiens, anti-proliferation, COV318, Ovarian cancer, maximum concentration 30 μM
Experimental: as §1

DBTRG05MG cells = assay: as above; format: cell-based; conditions: Homo sapiens, DBTRG-05MG, anti-proliferation, Brain (Glioblastoma)
Experimental: as §1

DKMG cells = assay: as above; format: cell-based; conditions: Homo sapiens, anti-proliferation, Brain (Glioblastoma)
Experimental: as §1

GAMG cells = assay: as above; format: cell-based; conditions: Homo sapiens, anti-proliferation, Brain (Glioblastoma)
Experimental: as §1

GB1 cells = assay: as above; format: cell-based; conditions: Homo sapiens, GB-1, anti-proliferation, GB1, Brain (Glioblastoma)
Experimental: as §1

H4 cells = assay: as above; format: cell-based; conditions: Homo sapiens, anti-proliferation, H4, Brain (Astrocytoma)
Experimental: as §1

HeLa cells = assay: as above; format: cell-based; conditions: Homo sapiens, anti-proliferation
Experimental: as §1

IGR37 cells = assay: as above; format: cell-based; conditions: Homo sapiens, IGR-37, anti-proliferation, IGR37, Melanoma
Experimental: as §1

LN229 cells = assay: as above; format: cell-based; conditions: Homo sapiens, LN-229, anti-proliferation, LN229, Brain (Glioblastoma)
Experimental: as §1

M059J cells = assay: as above; format: cell-based; conditions: Homo sapiens, anti-proliferation, Brain (Glioblastoma)
Experimental: as §1

Mel202 cells = assay: as above; format: cell-based; conditions: Homo sapiens, anti-proliferation, Mel202, Uveal melanoma
Experimental: as §1

PFSK cells = assay: as above; format: cell-based; conditions: Homo sapiens, anti-proliferation, Brain (Primitive neuroectodermal tumor)
Experimental: as §1

SK-MEL-3 cells = assay: as above; format: cell-based; conditions: Homo sapiens, SK-MEL3; anti-proliferation, SK-MEL-3, 72 h
Experimental: as §1

SW1783 cells = assay: as above; format: cell-based; conditions: Homo sapiens, anti-proliferation, SW1783, Brain (Anaplastic astrocytoma)
Experimental: as §1

T98G cells = assay: as above; format: cell-based; conditions: Homo sapiens, anti-proliferation, Brain (Glioblastoma)
Experimental: as §1

U-251MG cells = assay: as above; format: cell-based; conditions: Homo sapiens, anti-proliferation, Brain (Glioblastoma: Astrocytoma)
Experimental: as §1

U118-MG cells = assay: as above; format: cell-based; conditions: Homo sapiens, U-118-MG, anti-proliferation, Brain (Glioblastoma: Astrocytoma)
Experimental: as §1

YKG1 cells = assay: as above; format: cell-based; conditions: Homo sapiens, YKG-1, anti-proliferation, YKG1, Brain (Glioblastoma)
Experimental: as §1

[1] = test system: IGR-37 melanoma xenograft; assay: In vivo xenotransplantation model of human cancer; design: species or system mice; conditions: for T/C: IGR-37 Melanoma, mean final tumor weight treatment vs control, study end
Text: The anti-tumor activity of Example 1, ((5S)-5-methyl-6-{3-(trifluoromethyl)-4-[3-(trifluoromethyl)-1H-pyrazol-1-yl]phenyl}-4,5-dihydro-1,2,4-triazin-3(2H)-one), was examined in murine xenotransplantation models of human cancer. For this purpose, mice were implanted subcutaneously with tumor cells. At a mean tumor size of 20-40 mm^2 animals were randomized into treatment and control groups (at least n=10 animals/group) and treatment started with vehicle only or Example 1 (formulation: 90% PEG400/10% Ethanol; application route: per os (“p.o.”), orally). The oral application volume was 10 ml/kg. In the case of twice daily treatments, the time interval between two applications per day was 6-7 h. The tumor size and the body weight were determined at least weekly. The tumor area was detected by means of an electronic caliper [length (mm)×width (mm)]. The experiment was ended when the tumors of the vehicle control reached the pre-determined ethical endpoint based on German and European animal welfare regulations. In vivo anti-tumor efficacy is presented as T/C ratio at study end (Treatment/Control; mean tumor area or weight of treatment group/mean tumor area or weight of control group) in Table 7. A compound having a T/C below 0.5 is defined as active (i.e., effective). Statistical analysis was assessed using SigmaStat software. A one-way analysis of variance was performed and differences to the control were compared by a pair-wise comparison procedure (Dunn's method).

For `C[C@@H]1NC(=O)NN=C1c1ccc(-n2ccc(C(F)(F)F)n2)c(C(F)(F)F)c1` [Example 1, (5S)-5-methyl-6-{3-(trifluoromethyl)-4-[3-(trifluoromethyl)-1H-pyrazol-1-yl]phenyl}-4,5-dihydro-1,2,4-triazin-3(2H)-one], the IC50 (42-MG-BA cells) was greater than 0.1 µM, the IC50 (92.1 cells) was 0.0194 µM and the IC50 (COV318 cells) was 8.93 µM. For the same molecule, the IC50 (DBTRG05MG cells) was 0.0305 µM, the IC50 (DKMG cells) was 0.0166 µM and the IC50 (GAMG cells) was greater than 0.1 µM. It also gave an IC50 (GB1 cells) of 0.00896 µM, an IC50 (H4 cells) of 0.0477 µM and an IC50 (HeLa cells) of 0.0015 µM. The IC50 (IGR37 cells) was 0.00401 µM, the IC50 (LN229 cells) was greater than 0.1 µM and the IC50 (M059J cells) was 0.0405 µM. For the same molecule, the IC50 (Mel202 cells) was 0.0742 µM, the IC50 (PFSK cells) was 0.00295 µM and the IC50 (SK-MEL-3 cells) was 0.004 µM. The IC50 (SW1783 cells) was greater than 0.1 µM, the IC50 (T98G cells) was greater than 0.1 µM and the IC50 (U-251MG cells) was greater than 0.1 µM. The IC50 (U118-MG cells) was greater than 0.1 µM, the IC50 (YKG1 cells) was greater than 0.1 µM and the T/C ([1]; 1 mg/kg 2QD p.o.) was 0.06 *. For the same molecule, the T/C ([1]; 2 mg/kg 2QD p.o.) was 0.06 *, the T/C ([1]; 4 mg/kg 2QD p.o.) was 0.06 * and the T/C ([1]; 4 mg/kg QD p.o.) was 0.07 *. The “anti-tumor efficacy (reduction of tumor area)” value ([1]; xenograft model of human tumors, melanoma, monotherapy) was “effective in reduction of tumor area in melanoma”.
